# Measurements: patent US20240216519A1, “SMALL HYDROPHOBIC PROTEIN DRUG CONJUGATES AND USES THEREOF” (priority 2021, published 2024)
# Where no end group is shown, it is not given here.
# Assays:
# GPR125 (ADGRA3) [1] = target: T1, GPR125 (ADGRA3) (Homo sapiens, UniProt Q8IWK6); experiment: xCELLigence impedance, MDA231 cells endogenously expressing GPR125; type: cell-based; details: first 30 minutes after stimulation
# T1 sequence (Q8IWK6 34-1321): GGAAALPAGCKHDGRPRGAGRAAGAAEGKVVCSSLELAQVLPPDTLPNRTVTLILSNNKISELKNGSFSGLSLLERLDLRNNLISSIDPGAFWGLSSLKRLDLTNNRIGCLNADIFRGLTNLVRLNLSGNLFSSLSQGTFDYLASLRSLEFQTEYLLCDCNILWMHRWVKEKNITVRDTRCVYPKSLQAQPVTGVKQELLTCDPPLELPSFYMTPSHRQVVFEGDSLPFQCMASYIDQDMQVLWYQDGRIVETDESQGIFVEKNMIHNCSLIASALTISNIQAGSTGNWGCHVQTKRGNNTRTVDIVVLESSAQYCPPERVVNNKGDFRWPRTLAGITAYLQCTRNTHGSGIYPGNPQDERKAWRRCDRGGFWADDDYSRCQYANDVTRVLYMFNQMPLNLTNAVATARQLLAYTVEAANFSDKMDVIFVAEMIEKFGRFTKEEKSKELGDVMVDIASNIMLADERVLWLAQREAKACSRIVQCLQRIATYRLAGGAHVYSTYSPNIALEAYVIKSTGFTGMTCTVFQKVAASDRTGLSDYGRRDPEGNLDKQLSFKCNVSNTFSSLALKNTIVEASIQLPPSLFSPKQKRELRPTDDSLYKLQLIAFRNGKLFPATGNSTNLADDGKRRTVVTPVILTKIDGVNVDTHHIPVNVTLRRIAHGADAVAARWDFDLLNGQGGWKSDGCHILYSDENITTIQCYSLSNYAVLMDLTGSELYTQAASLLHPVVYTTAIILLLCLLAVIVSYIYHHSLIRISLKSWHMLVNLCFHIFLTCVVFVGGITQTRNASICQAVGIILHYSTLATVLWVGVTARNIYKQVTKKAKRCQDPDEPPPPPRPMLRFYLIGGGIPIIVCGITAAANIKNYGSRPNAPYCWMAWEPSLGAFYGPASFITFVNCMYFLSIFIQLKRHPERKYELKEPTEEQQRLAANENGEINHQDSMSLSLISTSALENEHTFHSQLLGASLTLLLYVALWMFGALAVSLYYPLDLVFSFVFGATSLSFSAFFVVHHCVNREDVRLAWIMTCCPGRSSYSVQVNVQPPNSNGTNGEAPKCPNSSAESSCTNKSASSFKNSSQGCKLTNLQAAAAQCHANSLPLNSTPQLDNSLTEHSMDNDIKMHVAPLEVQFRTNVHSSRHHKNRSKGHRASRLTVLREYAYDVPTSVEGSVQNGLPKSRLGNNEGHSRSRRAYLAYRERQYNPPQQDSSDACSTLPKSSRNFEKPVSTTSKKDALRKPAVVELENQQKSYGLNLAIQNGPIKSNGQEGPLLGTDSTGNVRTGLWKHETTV
# Procedure: (§1) Once the cells are added to the E-plate they are allowed to adhere and proliferate for 18 hours during which the impedance is measured every 15 minutes generating the initial adhesion and growth curve. Upon stimulation the measurements are change to rapid detection every 15 seconds followed by every minute and every 5 minutes during the first hour after stimulation.
# GPR125 (ADGRA3) [2] = target: T1, GPR125 (ADGRA3); experiment: xCELLigence impedance, HEK293 Flp-In T-rex cells with full length GPR125; type: cell-based; set-up: HEK293 Flp-In T-rex cells stably transfected with full length (FL) GPR125; expressed in transfected cells; host or cells: HEK293 Flp-In T-rex cells; details: HEK293 Flp-In T-rex cells stably transfected with full length (FL) GPR125, first 30 minutes after stimulation
# Procedure: as §1
# C57BL/6J mice [3] = experiment: Acute food intake in lean mice, SH(2-11)-Exendin-4 (Example 12); type: in vivo, mouse; details: 15 nmol/kg s.c., conjugate also vs Exendin-4(1-39)
# Procedure: Female C57BL/6J mice were purchased from Charles Rivers. One week before study initiation the mice were single housed with free access to food and water. […] Food intake was measured after 1, 2, 4 and 14 hours (FIG. 16A-D).
# [4] = Plasma and CSF concentrations after injection into vena cava (RIA GLP-1 assay); type: in vivo; details: rat, 10 min after i.v. injection
# Procedure: Male Sprague Dawley rats were purchased from Charles Rivers. Animals were anesthetized by hypnorm/dormicum, and restrained in a stereotactic instrument. […] Blood samples were collected prior to the injection of test compounds and straight after CSF aspiration.
# The assay buffer was 100 mM Tris buffer with pH 8.5 containing 1% (wt/vol) human serum albumin, 0.01 mM valine-pyrrolidide and 500 KIE aprotinin (final concentrations). […] Plasma and CSF concentrations were measured after dilution in assay buffer. Free and bound moieties were separated with plasma-coated charcoal.
# C57BL/6J mice [5] = experiment: Acute food intake in lean mice, s.c. (Example 10); type: in vivo, mouse
# Procedure: Female C57BL/6J mice were purchased from Charles Rivers. One week before study initiation the mice were single housed with free access to food and water. […] Thirty minutes prior peptide injection, all mice were administered subcutaneously with DDP-4 inhibitor Valine-pyrrolidide (1.5 mg/mouse). Food intake was measured after 1, 2, 4 and 14 hours (FIG. 14A-D).
# Results shown are combined data from five studies with an identical study design as described above. Between each study mice had at least one week washout period.
# [6] = system: Diet induced obese C57BL/6NTac male mice; experiment: Acute food intake in diet induced obese mice, s.c. (Example 11); type: in vivo, mouse; details: 15 nmol/kg s.c., conjugate also vs GLP-1(7-36)
# Procedure: Diet induced obese C57BL/6NTac male mice were purchased from Taconic and continued on a high fat high sucrose diet with free access to water. One week after arrival, animals were double or single housed. […] Thirty minutes prior peptide injection, all mice were administered subcutaneously with DDP-4 inhibitor Valine-pyrrolidide (3 mg/mouse). Food intake was measured after 1, 2, 4 and 14 hours (FIG. 15A-D).
# [7] = target: T2, GPR125 (ADGRA3) in mouse choroid plexus (mouse, UniProt Q7TT36 28-1310); experiment: fluorescence microscopy of mouse brain cryosections, WT against GPR125 KO (KO stained only at 22 µM and 11 µM)
# T2 construct: whole, on cells
# T2 sequence: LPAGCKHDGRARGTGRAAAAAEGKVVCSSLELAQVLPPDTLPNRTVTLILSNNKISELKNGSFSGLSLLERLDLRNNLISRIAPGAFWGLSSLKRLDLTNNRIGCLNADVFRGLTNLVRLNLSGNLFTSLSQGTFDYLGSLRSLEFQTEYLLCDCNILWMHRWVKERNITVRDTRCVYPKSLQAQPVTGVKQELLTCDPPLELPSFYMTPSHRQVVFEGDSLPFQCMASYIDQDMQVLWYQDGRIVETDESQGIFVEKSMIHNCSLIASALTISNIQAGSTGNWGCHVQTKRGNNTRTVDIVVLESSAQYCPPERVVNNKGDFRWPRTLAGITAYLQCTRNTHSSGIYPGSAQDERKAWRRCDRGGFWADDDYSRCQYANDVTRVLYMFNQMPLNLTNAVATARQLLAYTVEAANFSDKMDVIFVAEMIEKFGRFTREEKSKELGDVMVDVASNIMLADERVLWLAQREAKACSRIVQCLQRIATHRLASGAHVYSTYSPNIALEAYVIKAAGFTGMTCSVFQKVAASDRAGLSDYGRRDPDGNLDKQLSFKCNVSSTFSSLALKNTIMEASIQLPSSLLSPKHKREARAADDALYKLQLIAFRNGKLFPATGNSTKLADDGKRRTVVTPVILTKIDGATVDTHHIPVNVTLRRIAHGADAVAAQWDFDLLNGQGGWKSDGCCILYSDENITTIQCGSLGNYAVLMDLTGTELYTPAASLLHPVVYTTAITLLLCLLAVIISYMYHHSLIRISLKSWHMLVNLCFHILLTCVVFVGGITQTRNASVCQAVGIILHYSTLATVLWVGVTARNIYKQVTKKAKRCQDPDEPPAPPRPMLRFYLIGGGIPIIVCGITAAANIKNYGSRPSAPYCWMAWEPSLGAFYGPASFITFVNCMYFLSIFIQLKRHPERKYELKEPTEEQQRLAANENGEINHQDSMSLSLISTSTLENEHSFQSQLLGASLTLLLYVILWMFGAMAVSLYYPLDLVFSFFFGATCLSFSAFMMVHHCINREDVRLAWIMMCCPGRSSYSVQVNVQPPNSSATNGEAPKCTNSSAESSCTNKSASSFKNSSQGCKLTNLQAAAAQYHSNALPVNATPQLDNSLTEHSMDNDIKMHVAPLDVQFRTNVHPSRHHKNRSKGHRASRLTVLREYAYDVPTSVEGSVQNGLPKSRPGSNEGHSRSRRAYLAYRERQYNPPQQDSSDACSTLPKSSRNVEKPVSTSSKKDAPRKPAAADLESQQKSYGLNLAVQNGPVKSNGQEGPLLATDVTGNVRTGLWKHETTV
molecule,measurement,setting,value
"SH2-9: PAIQPPLY, MuV SH protein fragment (2-9) (Genotype G Genbank ID QFO38283.1 2-9)","GPR125 signaling, area under the curve (AUC) of impedance",GPR125 (ADGRA3) [1],affected GPR125 signaling
same,"GPR125 signaling, area under the curve (AUC) of impedance",GPR125 (ADGRA3) [2],affected GPR125 signaling
"SH1-9: MPAIQPPLY, MuV SH protein fragment (1-9) (Genotype G Genbank ID QFO38283.1 1-9)","GPR125 signaling, area under the curve (AUC) of impedance",GPR125 (ADGRA3) [1],affected GPR125 signaling
same,"GPR125 signaling, area under the curve (AUC) of impedance",GPR125 (ADGRA3) [2],affected GPR125 signaling
Exendin-4 [Exendin-4(1-39)],food intake compared to vehicle,C57BL/6J mice [3]; after 1 hour,decreased food intake
same,food intake compared to vehicle,C57BL/6J mice [3]; after 2 hours,decreased food intake
same,food intake compared to vehicle,C57BL/6J mice [3]; after 4 hours,less significant
"CC[C@H](C)[C@H](NC(=O)[C@H](Cc1ccccc1)NC(=O)[C@H](CCC(=O)O)NC(=O)[C@H](CCCCN)NC(=O)[C@H](C)NC(=O)[C@H](C)NC(=O)[C@H](CCC(N)=O)NC(=O)CNC(=O)[C@H](CCC(=O)O)NC(=O)[C@H](CC(C)C)NC(=O)[C@H](Cc1ccc(O)cc1)NC(=O)[C@H](CO)NC(=O)[C@H](CO)NC(=O)[C@@H](NC(=O)[C@H](CC(=O)O)NC(=O)[C@H](CO)NC(=O)[C@@H](NC(=O)[C@H](Cc1ccccc1)NC(=O)[C@@H](NC(=O)CNC(=O)[C@H](CCC(=O)O)NC(=O)[C@H](C)NC(=O)[C@@H](N)Cc1c[nH]cn1)[C@@H](C)O)[C@@H](C)O)C(C)C)C(=O)N[C@@H](C)C(=O)N[C@@H](Cc1c[nH]c2ccccc12)C(=O)N[C@@H](CC(C)C)C(=O)N[C@H](C(=O)N[C@@H](CCCCN)C(=O)NCC(=O)N[C@@H](CCCNC(=N)N)C(N)=O)C(C)C [GLP-1(7-36), GLP-1 (7-36) amide, reference compound]",detectable in CSF by RIA GLP-1 assay,[4],detectable
same,food intake compared to vehicle,"C57BL/6J mice [5]; 15 nmol/kg s.c., after 1 hour",did not show a significant decrease
same,food intake compared to vehicle,"C57BL/6J mice [5]; 15 nmol/kg s.c., after 2 hours",did not show a significant decrease
same,food intake compared to vehicle,"C57BL/6J mice [5]; 15 nmol/kg s.c., after 4 hours",did not show a significant decrease
same,food intake compared to vehicle,"C57BL/6J mice [5]; 15 nmol/kg s.c., after 14 hours",did not show a significant decrease
same,food intake compared to vehicle,"C57BL/6J mice [5]; 30 nmol/kg s.c., after 1 hour",decreased their food intake significantly
same,food intake compared to vehicle,"C57BL/6J mice [5]; 30 nmol/kg s.c., after 2 hours",decreased their food intake significantly
same,food intake compared to vehicle,"C57BL/6J mice [5]; 30 nmol/kg s.c., after 4 hours",less significant
same,food intake compared to vehicle,[6]; after 1 hour,decreased food intake
same,food intake compared to vehicle,[6]; after 2 hours,decreased food intake
same,food intake compared to vehicle,[6]; after 4 hours,not present
SH1-57: whole mumps virus SH protein 1-57 (MPAIQPPLYLTFLLLILLYLIITLYVWIILTITYKTAVRHAALYQRSFFRWSFDHSL; Genotype G Genbank ID QFO38283.1 1-57; (1)..(57) Genotype G Genbank ID QFO38283.1 1-57),"GPR125 signaling, area under the curve (AUC) of impedance",GPR125 (ADGRA3) [1],affected GPR125 signaling
same,"GPR125 signaling, area under the curve (AUC) of impedance",GPR125 (ADGRA3) [2],affected GPR125 signaling
"TAMRA labelled SH-protein (SEQ ID NO: 129) (other, also: TAMRA labelled, also called TAMRA-functionalized SH protein) MPAIQPPLYLTFLLLILLYLIITLYVWIILTVTYKTAVRHAALYQRSFFHWSFDHSL",binding result,[7],binds
